Consider 32 compounds from ChEMBL document CHEMBL1154653, “Discovery and pharmacological characterization of aryl piperazine and piperidine ethers as dual acting norepinephrine reuptake inhibitors and 5-HT1A partial agonists” (Bioorg Med Chem Lett, 2009).

Series [1] concerns the target T1, Sodium-dependent noradrenaline transporter (Homo sapiens, UniProt P23975). Briefly: biochemical.
Description: Displacement of [125I]RTI-55 from human NET expressed in HEK293 cells
Series [2] addresses T2, Sodium-dependent dopamine transporter (Homo sapiens, UniProt Q01959). It is filed as cell-based, HEK293.
In series [3] the target is T3, Sodium-dependent serotonin transporter (Homo sapiens, UniProt P31645). Briefly: biochemical.
T3 sequence (P31645 whole entry): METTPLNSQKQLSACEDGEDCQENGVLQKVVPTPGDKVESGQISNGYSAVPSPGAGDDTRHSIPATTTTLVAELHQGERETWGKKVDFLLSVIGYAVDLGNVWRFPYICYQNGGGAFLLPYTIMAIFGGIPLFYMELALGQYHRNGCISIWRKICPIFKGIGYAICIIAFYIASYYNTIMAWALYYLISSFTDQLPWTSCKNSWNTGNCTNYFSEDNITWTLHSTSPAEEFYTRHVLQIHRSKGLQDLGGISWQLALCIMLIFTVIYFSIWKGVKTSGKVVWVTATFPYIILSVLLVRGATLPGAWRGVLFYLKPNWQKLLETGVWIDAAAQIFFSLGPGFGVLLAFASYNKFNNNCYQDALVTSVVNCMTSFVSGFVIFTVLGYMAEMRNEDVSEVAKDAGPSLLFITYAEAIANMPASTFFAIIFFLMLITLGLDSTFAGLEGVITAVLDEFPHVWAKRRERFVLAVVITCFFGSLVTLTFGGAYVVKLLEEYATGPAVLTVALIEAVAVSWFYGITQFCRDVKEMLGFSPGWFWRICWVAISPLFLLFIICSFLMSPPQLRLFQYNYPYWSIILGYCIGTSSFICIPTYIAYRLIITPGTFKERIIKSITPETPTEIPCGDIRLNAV
Description: Displacement of [125I]RTI-55 from human SERT expressed in HEK293 cells
For series [4], the target named is T4, 5-hydroxytryptamine receptor 1A (Homo sapiens, UniProt P08908).
T4 sequence (P08908 whole entry): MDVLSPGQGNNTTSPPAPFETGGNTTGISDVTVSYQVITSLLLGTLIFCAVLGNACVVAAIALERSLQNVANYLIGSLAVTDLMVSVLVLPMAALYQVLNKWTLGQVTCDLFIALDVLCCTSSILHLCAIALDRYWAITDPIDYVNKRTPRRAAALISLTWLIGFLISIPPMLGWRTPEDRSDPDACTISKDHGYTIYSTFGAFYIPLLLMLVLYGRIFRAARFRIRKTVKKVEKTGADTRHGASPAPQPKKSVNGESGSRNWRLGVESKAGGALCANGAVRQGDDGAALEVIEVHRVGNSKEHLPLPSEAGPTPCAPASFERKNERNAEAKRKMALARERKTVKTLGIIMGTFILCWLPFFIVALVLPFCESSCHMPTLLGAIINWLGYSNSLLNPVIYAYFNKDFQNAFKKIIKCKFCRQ
The series is described as follows: biochemical.
Description: Displacement of [3H]8-OH-DPAT from human 5HT1A receptor expressed in CHO cells

Series [5] concerns the target T4, 5-hydroxytryptamine receptor 1A. The series is described as follows: Partial agonist activity at human 5HT1A expressed in HEK293 cells by FLIPR assay. It is filed as functional, cell-based.
The target in series [6] is T2, Sodium-dependent dopamine transporter. The series is described as follows: Inhibition of dopamine uptake at human DAT expressed in HEK293 cells. It is filed as cell-based.
In series [7] the target is T3, Sodium-dependent serotonin transporter. The series is described as follows: Inhibition of [3H]5-HT uptake at human 5HTT expressed in HEK293 cells. The format is cell-based.
Series [8] addresses T5, 5-hydroxytryptamine receptor 1A (Homo sapiens) (UniProt P08908).
T5 sequence (whole entry): T4 sequence (P08908 whole entry)
The series is described as follows: Partial agonist activity at human 5HT1A expressed in HEK293 cells by FLIPR assay relative to 5HT. The format is functional, cell-based.

The target in series [9] is T1, Sodium-dependent noradrenaline transporter. The series is described as follows: Inhibition of norepinephrine uptake at human NET expressed in HEK293 cells. It is filed as cell-based.
A short description of series [10]: Apparent intrinsic clearance in human liver microsomes. The format is ADME, Microsome.
Series [11] relates to Rattus norvegicus. Briefly: Ex vivo receptor occupancy at NET receptor in Sprague-Dawley rat brain at 10 mg/kg, sc by [3H]nisoxetine binding. As to conditions: route subcutaneous. It is filed as functional.
The subject of series [12] is Rattus norvegicus. The series is described as follows: Ex vivo receptor occupancy at 5HT1A receptor in Sprague-Dawley rat brain at 10 mg/kg, sc by [3H]-OH-DAPT binding. It is filed as functional. As to conditions: route subcutaneous.

T1 sequence (P23975 whole entry): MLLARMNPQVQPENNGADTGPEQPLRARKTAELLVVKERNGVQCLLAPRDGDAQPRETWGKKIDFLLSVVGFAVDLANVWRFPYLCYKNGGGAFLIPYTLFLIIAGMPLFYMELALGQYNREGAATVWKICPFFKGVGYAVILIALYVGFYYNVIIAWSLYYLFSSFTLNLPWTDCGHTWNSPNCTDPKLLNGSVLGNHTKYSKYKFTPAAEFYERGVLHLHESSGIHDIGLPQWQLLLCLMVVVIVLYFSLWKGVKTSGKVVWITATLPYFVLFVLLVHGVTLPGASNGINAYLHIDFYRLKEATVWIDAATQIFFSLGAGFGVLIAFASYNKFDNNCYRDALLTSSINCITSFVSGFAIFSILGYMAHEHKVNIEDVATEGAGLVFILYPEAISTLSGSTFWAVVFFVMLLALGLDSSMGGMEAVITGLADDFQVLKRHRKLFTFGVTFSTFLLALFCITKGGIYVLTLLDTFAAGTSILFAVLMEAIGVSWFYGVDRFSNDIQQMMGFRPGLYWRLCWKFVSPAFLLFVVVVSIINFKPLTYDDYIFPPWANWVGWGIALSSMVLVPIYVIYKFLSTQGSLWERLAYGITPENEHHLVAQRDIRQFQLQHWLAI
T2 sequence (Q01959 whole entry): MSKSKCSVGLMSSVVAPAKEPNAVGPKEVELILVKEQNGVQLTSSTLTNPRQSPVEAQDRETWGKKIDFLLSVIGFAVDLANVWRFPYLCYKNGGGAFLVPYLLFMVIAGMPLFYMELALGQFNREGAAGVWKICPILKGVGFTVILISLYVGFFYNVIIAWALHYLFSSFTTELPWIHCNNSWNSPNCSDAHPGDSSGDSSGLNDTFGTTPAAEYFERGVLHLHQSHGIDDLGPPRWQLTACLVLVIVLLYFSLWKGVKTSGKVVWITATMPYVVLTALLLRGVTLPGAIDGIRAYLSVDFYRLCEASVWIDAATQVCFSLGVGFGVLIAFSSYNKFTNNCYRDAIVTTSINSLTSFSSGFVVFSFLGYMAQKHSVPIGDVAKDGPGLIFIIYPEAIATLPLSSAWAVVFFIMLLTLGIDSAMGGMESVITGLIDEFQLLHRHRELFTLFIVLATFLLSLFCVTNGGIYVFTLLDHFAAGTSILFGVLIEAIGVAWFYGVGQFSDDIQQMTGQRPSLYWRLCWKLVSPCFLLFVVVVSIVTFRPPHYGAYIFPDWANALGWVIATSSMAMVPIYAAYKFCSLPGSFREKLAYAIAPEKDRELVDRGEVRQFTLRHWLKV

Regarding `O=C1/C(=C/c2ccccc2N2CCNCC2)SCCN1c1ccc(F)cc1F`, the Ki (usually a dissociation constant, usually derived from enzyme kinetics or from competition with a known ligand) in series [1] was 650 nM; in series [2] it was 1360 nM; in [3], 98 nM; in series [4], 4 nM.

In series [4], `Fc1cccc(Oc2ccccc2N2CCNCC2)c1` returned a Ki of 9 nM.

For `Fc1ccc(Oc2ccccc2C2CCNCC2)cc1`, the affinity in [4], expressed as Ki, was 117 nM.

Consider `Fc1ccccc1COc1ccccc1N1CCNCC1`, for which the Ki in series [1] is 526 nM; in [2], > 10000 nM; in series [3], 978 nM; in series [4] it was 31 nM.

With `c1ccc(COc2ccccc2N2CCNCC2)cc1`, the EC50 (usually the midpoint of the concentration-response curve) in series [5] is > 10000 nM. The same compound showed a Ki in series [4] of 28 nM.

Turning to `Fc1cccc(OCc2ccccc2C2CCNCC2)c1`, the Ki is 1940 nM in series [1], 461 nM in series [2], 49 nM in [3] and > 1000 nM in [4].

For the compound `Fc1cccc(Oc2ccccc2)c1C1CCNCC1`, the Ki in series [1] is 170 nM; in series [2] it was 45 nM; in series [3], 706 nM; in series [4], 128 nM.

Take `c1ccc(Oc2ccccc2N2CCNCC2)cc1`: the values for the Ki in [1], in series [2] and in series [4] were 554 nM, 4730 nM and 128 nM, respectively.

As to `O=C1C(Cc2ccccc2N2CCNCC2)SCCN1c1ccc(Cl)c(Cl)c1` (centres undefined), the Ki in series [1] was determined as 5 nM; in [2] it was 87 nM; in series [3], 81 nM; in [4] it was 9 nM.

As for `Fc1ccc(OCc2ccc(Cl)c(Cl)c2)c(C2CCNCC2)c1`, the Ki worked out at 20 nM in [1], 452 nM in [2], 2 nM in series [3] and 1160 nM in series [4].

Turning to `Fc1cccc(C2CCNCC2)c1OCc1ccccc1`, the Ki in series [1] came to 9 nM; in series [2], 7370 nM; in series [3], 2970 nM; in series [4] it was 606 nM.

`Fc1cccc(OCc2ccccc2N2CCNCC2)c1F` displayed a Ki in series [4] of 101 nM.

For the compound `Cc1ccc(C2CCNCC2)c(Oc2cccc(F)c2)c1`, the Ki in series [4] is > 4570 nM.

`Fc1ccc(COc2ccccc2C2CCNCC2)cc1` had a Ki in series [4] of 77 nM.

For `Fc1cccc(OCc2ccccc2N2CCNCC2)c1`, the Ki in series [1] was 104 nM; in series [2] it was > 2000 nM; in series [3] it was 17 nM; in series [4], 116 nM.

Consider `Cc1ccc(C2CCNCC2)c(Oc2ccc(F)cc2)c1`, for which the inhibitory constant (Ki) in [1] was 115 nM; in [2], 1680 nM; in [3], 427 nM; in series [4], > 4570 nM.

The compound `c1ccc(N2CCNCC2)c(COc2ccccc2C2CC2)c1` showed a Ki in series [4] of 466 nM.

`Fc1cccc(C2CCNCC2)c1Oc1ccccc1`: the EC50 turned out to be 877 nM in [5], 982 nM in [6], 1760 nM in [7] and 358 nM in series [9]. For the same compound, the Ki in [1] worked out at 1370 nM; in [2] it was 239 nM; in series [3] it was 2330 nM; in [4], 20 nM. For the same compound, in series [8], the Emax – broadly, the greatest response seen or fitted, relative to the assay's reference – was determined as 35%. The microsomal CLint (as a rule, the capacity of the preparation to metabolise the compound, expressed as a volume cleared per time) in [10] was 15 µL/min/mg.

Turning to `c1ccc(OCc2ccccc2C2CCNCC2)cc1`, the Ki was 1710 nM in series [1], 396 nM in series [2], 364 nM in series [3] and > 1000 nM in series [4].

Regarding `c1ccc(COc2ccccc2C2CCNCC2)cc1`, the Ki in [1] is 76 nM; in [2], 1000 nM; in series [3], 74 nM; in series [4], 121 nM.

Take `c1ccc(OCc2ccccc2N2CCNCC2)cc1`: the Ki in series [2] came out at 701 nM; in [3], 780 nM; in series [4] it was 189 nM.

On to `Cc1ccc(F)c(Oc2ccccc2C2CCNCC2)c1`, for which the Ki in [1] amounted to 3 nM; in series [2] it was 1080 nM; in series [3] it was 26 nM; in series [4] it was 57 nM.

In series [4], `Fc1cccc(OCc2ccccc2)c1C1CCNCC1` returned a Ki of 364 nM.

As to `Fc1cccc(Oc2ccccc2C2CCNCC2)c1`, in [8], the Emax was determined as 51%.

Regarding `Clc1cccc(Oc2ccccc2C2CCNCC2)c1`, in series [5], the EC50 is 1150 nM. In [8], this compound registered an Emax of 44%. In addition, in [4], the affinity corresponds to a Ki of 5 nM.

For the compound `Fc1ccc(Oc2cc(F)c(F)cc2C2CCNCC2)cc1`, in [4], the Ki was > 4570 nM.

`Fc1ccccc1COc1ccccc1C1CCNCC1` registered a Ki in [4] of 47 nM.

Consider `c1ccc(Oc2ccccc2C2CCNCC2)cc1`, for which the Ki came out at 416 nM in series [1], 284 nM in series [2], 1760 nM in series [3] and 63 nM in [4].

With `Fc1ccc(COc2ccc(Cl)cc2C2CCNCC2)cc1`, the Ki in series [1] is 6 nM; in series [2] it was 5530 nM; in series [3], 40 nM; in [4] it was > 1000 nM.

As to `Fc1ccc(COc2ccc(F)cc2C2CCNCC2)cc1`, the Ki in [4] is 2210 nM.

Regarding `Fc1ccc(Oc2ccccc2N2CCNCC2)cc1`, the affinity in [4], expressed as Ki, was 8 nM.

As for `Fc1cccc(Oc2cccc(F)c2C2CCNCC2)c1`, the EC50 in [5] is 137 nM. Besides, the Activity in [11] was 80%; in [12], 77%. Also, in series [8], the Emax was determined as 74%. Moreover, the Ki in series [4] was 21 nM.
